Patent EP1081131A1 (priority 1998, dated 1999)

Columns and labels:
Assay type in all cases: cell-based, mycobacteria of tuberculosis
[1] = tested on: Strain resistant to isoniazid; conditions: taken from patients, Sverdlovsk Regional SRI of Phthisiopulmonology 1998
[2] = tested on: Strain resistant to streptomycin and rifamycin; conditions: taken from patients, Sverdlovsk Regional SRI of Phthisiopulmonology 1998
[3] = tested on: Semiresistant (resistant to streptomycin, rifamycin and isoniazid); assay: Bacteriostatic activity on patient strains (Table 4); conditions: taken from patients, Central SRI of Tuberculosis RAMS 1997
[4] = tested on: Resistant to rifamycin; assay: as above; conditions: taken from patients, Central SRI of Tuberculosis RAMS 1997
[5] = tested on: Resistant to streptomycin; assay: as above; conditions: taken from patients, Central SRI of Tuberculosis RAMS 1997
[6] = tested on: Resistant to isoniazid; assay: as above; conditions: taken from patients, Central SRI of Tuberculosis RAMS 1997

[H]/N=C(/N)N[C@H]1[C@H](O)[C@@H](O)[C@H](O[C@@H]2O[C@@H](C)[C@](O)(C=O)[C@H]2O[C@@H]2O[C@@H](CO)[C@H](O)[C@@H](O)[C@@H]2NC)[C@@H](N/C(N)=N\[H])[C@@H]1O [Streptomycin, reference compound]
Inhibiting level [1]: >50.0 µg/mL
Inhibiting level [2]: 10.0 µg/mL

O=C(NN=Cc1c(OCCOc2ccc3ccccc3c2C=NNC(=O)c2ccccc2)ccc2ccccc12)c1ccccc1 [1,2-Bis[2(benzoyl hydrazonomethylnaphthoxy-2)]-ethane]
Inhibiting level [1]: 5.0 µg/mL
Inhibiting level [2]: 0.4 µg/mL

O=C(NN=Cc1ccccc1OCCCCOCCCCOc1ccccc1C=NNC(=O)c1cccnc1)c1cccnc1 [1,9-Bis(2-nicotinoyl hydrazonomethylphenoxy)-5-oxanonon]
Inhibiting level [1]: >5.0 µg/mL
Inhibiting level [2]: 0.4 µg/mL

COc1cc(C=NNC(=O)c2ccccc2)ccc1OCCOc1ccc(C=NNC(=O)c2ccccc2)cc1OC [1,2-Bis(2-methoxy-4-benzoyl hydrazonomethylphenoxy)-ethane]
Inhibiting level [1]: >5.0 µg/mL
Inhibiting level [2]: 0.8 µg/mL

O=Cc1ccc(Cl)cc1OCCOc1cc(Cl)ccc1C=O [1,2-Bis(2-formyl-5-chlorphenoxy)-ethane]
Inhibiting level [1]: 5.0 µg/mL
Inhibiting level [2]: 0.4 µg/mL

O=C(NN=Cc1ccccc1OCCOCCOc1ccccc1C=NNC(=O)c1ccncc1)c1ccncc1 [1,5-Bis(2-isonicotinoyl hydrazonomethylphenoxy)-3-oxapentane]
Inhibiting level [3]: 1.57 µg/mL
Inhibiting level [4]: 0.20 µg/mL
Inhibiting level [5]: 1.56 µg/mL
Inhibiting level [6]: 18.80 µg/mL

CO[C@H]1/C=C/O[C@@]2(C)Oc3c(C)c(O)c4c(O)c(cc(O)c4c3C2=O)NC(=O)/C(C)=C\C=C\[C@H](C)[C@H](O)[C@@H](C)[C@@H](O)[C@@H](C)[C@H](OC(C)=O)[C@@H]1C [Rifamycin, reference compound]
Inhibiting level [2]: 20.0 µg/mL

NNC(=O)c1ccncc1 [Isoniazid, hydrazide of isonicotinic acid, reference compound]
Inhibiting level [3]: 2.125 µg/mL
Inhibiting level [1]: 5.0 µg/mL
Inhibiting level [2]: 0.1 µg/mL
Inhibiting level [4]: 0.29 µg/mL
Inhibiting level [5]: 0.29 µg/mL
Inhibiting level [6]: >100 µg/mL
